9 compounds from patent US10280139B2, “Cytotoxic peptides and conjugates thereof” (priority 2014, dated 2019) can be followed below.

For one experiment, the system named is MDA-MB-231 clone 16, MDA-MB-231 clone 40, JimT-1 and HCC1954 cells. As to the kind of experiment: Cell proliferation assays of anti-Her2 ADCs, results in words over the cell line panel. The experiment is classed as cell-based, human. As to conditions: Her2 high, medium and low cell lines. The text has this:
Cells that naturally express target antigens or cell lines engineered to express target antigens are frequently used to assay the activity and potency of ADCs. For evaluation of the cell killing potency of anti-Her2 antibody ADCs in vitro, two engineered cell lines, MDA-MB-231 clone 16 and clone 40, and two endogenous cell lines, JimT-1 and HCC1954 cells were employed (Clinchy B, Gazdar A, Rabinovsky R, Yefenof E, Gordon B, Vitetta E S. Breast Cancer Res Treat. (2000) 61:217-228). MDA-MB-231 clone 16 cells stably express high copy numbers (˜5×10^5copies/cell) of recombinant human Her2 on the cell surface, while clone 40 expresses human Her2 at low levels (˜5×10^3 copies/cell). HCC1954 cells endogenously express high levels (˜5×10^5 copies/cell) of […] human Her2 in the surface while JimT-1 cells express human Her2 at a medium level (˜8×10^4 copies/cell). NCI-N87 cells express high levels of Her2 while A375 cell express low levels of Her2. An ADC should kill cells in an antigen-dependent manner, meaning that only cells that express sufficient antigen in the cell surface but not cells lacking the antigen will be killed. Therefore cell killing should not be observed MDA-MB-231 clone 40 cells.
(§1) To measure antigen-dependent cell killing, cell proliferation assays were conducted with Cell-Titer-Glo™ (Promega) five days after different cell types were incubated with various concentrations of ADCs (Riss et al., (2004) Assay Drug Dev Technol. 2:51-62).
Anti-Her2 ADCs prepared with compounds of the invention and conjugated site-specifically to anti-Her2 Cys mutant antibodies (see Table 5) were assayed in the aforementioned four cell lines to evaluate their cytotoxicity. […] In JimT-1 cells, a cell line with a medium level of Her2 expression, the cell killing activities by the ADCs varied widely. […] Many ADCs killed JimT-1 cell as effectively as HCC1954 and MDAMB231-16 cells (FIG. 1, Table 15). […] The significant differences of cytotoxic potency observed in JimT-1 cell amoung anti-Her2-LC-S159C ADCs have made it possible to rank the potency of the payloads. […] This is in contrast to the in vitro cell killing of both high and low Her2 expressing cell lines by free, unconjugated compounds of the invention (see Example 106,Table 14).
For the compound `CC[C@H](C)[C@@H]([C@@H](CC(=O)N1CCC[C@H]1[C@H](OC)[C@@H](C)C(=O)N[C@@H](Cc1ccccc1)C(=O)O)OC)N(C)C(=O)[C@@H](Nc1nc(C)cc(C(=O)NCCNC(=O)CCCCCN2C(=O)C=CC2=O)n1)C(C)C` [NL-38, (S)-2-((2R,3R)-3-((S)-1-((3R,4S,5S)-4-((S)-2-((4-((2-(6-(2,5-dioxo-2,5-dihydro-1H-pyrrol-1-yl)hexanamido)ethyl)carbamoyl)-6-methylpyrimidin-2-yl)amino)-N,3-dimethylbutanamido)-3-methoxy-5-methylheptanoyl)pyrrolidin-2-yl)-3-methoxy-2-methylpropanamido)-3-phenylpropanoic acid], the “Cell killing activity of anti-Her2 ADCs” value is “active in HCC1954 and MDAMB231-16 cells but not in JimT-1 cells”.
Consider `CC[C@H](C)[C@@H]([C@@H](CC(=O)N1CCC[C@H]1[C@H](OC)[C@@H](C)C(=O)N[C@@H](Cc1ccccc1)P(=O)(O)O)OC)N(C)C(=O)[C@@H](N=C(N(C)C)N1CCN(C(=O)CCCCCN2C(=O)C=CC2=O)CC1)C(C)C` (stereo in doubt) [NL-19, ((R)-1-((2R,3R)-3-((S)-1-((3R,4S,5S)-4-((S)-2-((E)-((dimethylamino)(4-(6-(2,5-dioxo-2,5-dihydro-1H-pyrrol-1-yl)hexanoyl)piperazin-1-yl)methylene)amino)-N,3-dimethylbutanamido)-3-methoxy-5-methylheptanoyl)pyrrolidin-2-yl)-3-methoxy-2-methylpropanamido)-2-phenylethyl)phosphonic acid], for which the “Cell killing activity of anti-Her2 ADCs” value is “active in HCC1954 and MDAMB231-16 cells but not in JimT-1 cells”.
As for `CC[C@H](C)[C@@H]([C@@H](CC(=O)N1CCC[C@H]1[C@H](OC)[C@@H](C)C(=O)N[C@@H](Cc1ccccc1)P(=O)(O)O)OC)N(C)C(=O)[C@@H](/N=C(\N(C)C)N1CCN(C(=O)CCCn2cc(CN3C(=O)C=CC3=O)nn2)CC1)C(C)C` [NL-21, ((R)-1-((2R,3R)-3-((S)-1-((3R,4S,5S)-4-((S)-2-((E)-((dimethylamino)(4-(4-(4-((2,5-dioxo-2,5-dihydro-1H-pyrrol-1-yl)methyl)-1H-1,2,3-triazol-1-yl)butanoyl)piperazin-1-yl)methylene)amino)-N,3-dimethylbutanamido)-3-methoxy-5-methylheptanoyl)pyrrolidin-2-yl)-3-methoxy-2-methylpropanamido)-2-phenylethyl)phosphonic acid], the “Cell killing activity of anti-Her2 ADCs” value was “active in HCC1954 and MDAMB231-16 cells but not in JimT-1 cells”.
`CC[C@H](C)[C@@H]([C@@H](CC(=O)N1CCC[C@H]1[C@H](OC)[C@@H](C)C(=O)N[C@@H](Cc1ccccc1)C(=O)O)OC)N(C)C(=O)[C@@H](NC(=O)N(CCCNC(=O)CCCCCN1C(=O)C=CC1=O)C(C)C)C(C)C` [NL-30, (S)-2-((2R,3R)-3-((S)-1-((3R,4S,7S)-4-((S)-sec-butyl)-20-(2,5-dioxo-2,5-dihydro-1H-pyrrol-1-yl)-7,10-diisopropyl-3-methoxy-5-methyl-6,9,15-trioxo-5,8,10,14-tetraazaicosan-1-oyl)pyrrolidin-2-yl)-3-methoxy-2-methylpropanamido)-3-phenylpropanoic acid]: the “Cell killing activity of anti-Her2 ADCs” value is “active in HCC1954 and MDAMB231-16 cells but not in JimT-1 cells”.
In the case of `CC[C@H](C)[C@@H]([C@@H](CC(=O)N1CCC[C@H]1[C@H](OC)[C@@H](C)C(=O)N[C@@H](Cc1ccccc1)C(=O)Nc1ccc(CNC(=O)CCCCCN2C(=O)C=CC2=O)cc1)OC)N(C)C(=O)[C@@H](/N=C(\N(C)C)N1CCNCC1)C(C)C` [CL-5, N-(4-((S)-2-((2R,3R)-3-((S)-1-((3R,4S,5S)-4-((S)-2-((E)-((dimethylamino)(piperazin-1-yl)methylene)amino)-N,3-dimethylbutanamido)-3-methoxy-5-methylheptanoyl)pyrrolidin-2-yl)-3-methoxy-2-methylpropanamido)-3-phenylpropanamido)benzyl)-6-(2,5-dioxo-2,5-dihydro-1H-pyrrol-1-yl)hexanamide], the “Cell killing activity of anti-Her2 ADCs” value is “active in HCC1954 and MDAMB231-16 cells but not in JimT-1 cells”.
Same read-out and setting: in the case of `CC[C@H](C)[C@@H]([C@@H](CC(=O)N1CCC[C@H]1[C@H](OC)[C@@H](C)C(=O)N[C@@H](Cc1ccccc1)C(=O)NS(=O)(=O)CCCn1cc(CN2C(=O)C=CC2=O)nn1)OC)N(C)C(=O)[C@@H](Nc1nccc(C)n1)C(C)C` [CL-24, (S)-2-((4-methylpyrimidin-2-yl)amino)-1-(((3R,4S,5S)-1-((S)-2-((1R,2R)-3-(((S)-N-1-(3-(4-((2,5-dioxo-2,5-dihydro-1H-pyrrol-1-yl)methyl)-1H-1,2,3-triazol-1-yl)propylsulfonamido)-1-oxo-3-phenylpropan-2-yl)amino)-1-methoxy-2-methyl-3-oxopropyl)pyrrolidin-1-yl)-3-methoxy-5-methyl-1-oxoheptan-4-yl)(methyl)amino)-3-methyl-1-oxobutane] it was “active in HCC1954 and MDAMB231-16 cells but not in JimT-1 cells”.

Another experiment relates to H526, KU812, CMK11-5 and Jurkat cells. As to the kind of experiment: Cell proliferation assays of antibody 20507 ADCs, results in words over the cell line panel. The experiment is classed as cell-based, human. As to conditions: antigen expressing cells versus Jurkat. The procedure: as §1
For the compound `CC[C@H](C)C([C@@H](CC(=O)N1CCC[C@H]1[C@H](OC)[C@@H](C)C(=O)N[C@@H](Cc1ccccc1)C(=O)NS(=O)(=O)CCCn1cc(CN2C(=O)C=CC2=O)nn1)OC)N(C)C(=O)[C@@H](N=C(N(C)C)N(C)C)C(C)C` (stereo partly drawn) [CL-9, (S)-2-((Bis(dimethylamino)methylene)amino)-1-(((3R,4S,5S)-1-((S)-2-((1R,2R)-3-(((S)-N-1-(3-(4-((2,5-dioxo-2,5-dihydro-1H-pyrrol-1-yl)methyl)-1H-1,2,3-triazol-1-yl)propylsulfonamido)-1-oxo-3-phenylpropan-2-yl)amino)-1-methoxy-2-methyl-3-oxopropyl)pyrrolidin-1-yl)-3-methoxy-5-methyl-1-oxoheptan-4-yl)(methyl)amino)-3-methyl-1-oxobutane], the “Cell killing activity of antibody 20507 ADCs” value is listed as “active when conjugated to antibody 20507”.
In the case of `CC[C@H](C)[C@@H]([C@@H](CC(=O)N1CCC[C@H]1[C@H](OC)[C@@H](C)C(=O)N[C@@H](Cc1ccccc1)C(=O)O)OC)N(C)C(=O)[C@@H](/N=C(\N(C)C)N1CCN(C(=O)CCCCCN2C(=O)C=CC2=O)CC1)C(C)C` [NL-4, (S)-2-((2R,3R)-3-((S)-1-((3R,4S,5S)-4-((S)-2-((E)-((dimethylamino)(4-(6-(2,5-dioxo-2,5-dihydro-1H-pyrrol-1-yl)hexanoyl)piperazin-1-yl)methylene)amino)-N,3-dimethylbutanamido)-3-methoxy-5-methylheptanoyl)pyrrolidin-2-yl)-3-methoxy-2-methylpropanamido)-3-phenylpropanoic acid], the “Cell killing activity of antibody 20507 ADCs” value was “active when conjugated to antibody 20507”.
`CC[C@H](C)[C@@H]([C@@H](CC(=O)N1CCC[C@H]1[C@H](OC)[C@@H](C)C(=O)N[C@H](Cc1ccccc1)C(=O)Nc1ccc(CNC(=O)CCCCCN2C(=O)C=CC2=O)cc1)OC)N(C)C(=O)[C@@H](N=C(N(C)C)N(C)C)C(C)C` [CL-1, N-(4-((R)-2-((2R,3R)-3-((S)-1-((3R,4S,5S)-4-((S)-2-((bis(dimethylamino)methylene)amino)-N,3-dimethylbutanamido)-3-methoxy-5-methylheptanoyl)pyrrolidin-2-yl)-3-methoxy-2-methylpropanamido)-3-phenylpropanamido)benzyl)-6-(2,5-dioxo-2,5-dihydro-1H-pyrrol-1-yl)hexanamide]: the “Cell killing activity of antibody 20507 ADCs” value is “active when conjugated to antibody 20507”.
